Article PMC3950723, “A fluorescence-based assay suitable for quantitative analysis of deadenylase enzyme activity” (Nucleic Acids Research, 2013)
{Flc} = fluorescein group

Experiments:
Type in all cases: biochemical
Caf1/CNOT7 = target: T1, Caf1/CNOT7 (Homo sapiens, UniProt Q9UIV1); assay: fluorescence-based deadenylase assay; conditions: for IC50: 15 min pre-incubation at room temperature, 60 min at 30°C, ± standard error of the mean, at least three independent experiments; for inhibition of Caf1/CNOT7 activity: 300 µM compound
T1 construct: hexahistidine (N); made in house; host or cells: Escherichia coli BL21 (DE3), plasmid pQE80L
Procedure: (§1) Standard reaction conditions for deadenylase assays were: 20 mM Tris–HCl pH 7.9, 50 mM NaCl, 2 mM MgCl2, 10% glycerol, 1 mM β-mercaptoethanol and 1.0 µM 5′-Flc-labelled RNA substrate in nuclease-free water.
(§2) For fluorescence-based detection of nuclease activity, deadenylase reactions (10–20 µl) were incubated at 30°C for 60 min and stopped by the addition of an equal volume of probe mix containing 1% SDS, and a 5-fold molar excess of 3′-labelled DNA probe. Fluorescence intensity was measured at 25°C (sensitivity setting 70–90) using a BioTek Synergy HT plate reader with 96 or 384 U-shaped black multi-well plates. Filter sets used were: 485 ± 20 nm (excitation) and 528 ± 20 nm (emission). Data analysis and curve-fitting were carried out using Microsoft Excel 2007 and Graphpad Prism 5.0.
Compounds (10 mM in dimethyl sulphoxide, DMSO) were stored in a dry, inert environment at −20°C and dispensed in 96-well plates using an automated facility (TTP Labtech Technology). Compounds were diluted to 0.5 mM using 20% DMSO/water. Aliquots (4 µl; 25% DMSO/water) were transferred to black U-well 384-well plates (Greiner Bio-One) and subsequent automated screening was carried out using a Biomek 3000 liquid handler (Beckman Coulter). After addition of enzyme (8 µl containing 1.0 µM Caf1/CNOT7, 50 mM Tris–HCl pH 7.9, 125 mM NaCl, 5 mM MgCl2, 25% glycerol, 2.5 mM β-mercaptoethanol), plates were left at room temperature for 15 min before the addition of RNA substrate (8 µl). The composition of the final reaction mixture was: 0.4 µM Caf1/CNOT7, 20 mM Tris–HCl pH 7.9, 50 mM NaCl, 2 mM MgCl2, 10% glycerol, 1 mM β-mercaptoethanol, 5% DMSO, 100 µM library compound. After incubation at 30°C for 60 min, 20 µl probe mix (5 µM DNA probe, 1% SDS, 20 mM Tris–HCl pH 8.0, 0.5 mM EDTA) was added. Fluorescence was measured using a BioTek Synergy HT plate reader as described above.

Ccr4/CNOT6L = target: T2, Ccr4/CNOT6L (Homo sapiens, UniProt Q96LI5); assay: fluorescence-based deadenylase assay, selectivity; conditions: 300 µM compound
T2 construct: lacking the amino terminal leucine-rich repeat domain (amino acids 1–155); made in house; host or cells: E. coli, plasmid pQE80L
Procedure: as §1, §2

PARN = target: T3, PARN (Homo sapiens, UniProt O95453); assay: fluorescence-based deadenylase assay, selectivity; conditions: 300 µM compound
T3 construct: made in house
T3 sequence (O95453 1-639): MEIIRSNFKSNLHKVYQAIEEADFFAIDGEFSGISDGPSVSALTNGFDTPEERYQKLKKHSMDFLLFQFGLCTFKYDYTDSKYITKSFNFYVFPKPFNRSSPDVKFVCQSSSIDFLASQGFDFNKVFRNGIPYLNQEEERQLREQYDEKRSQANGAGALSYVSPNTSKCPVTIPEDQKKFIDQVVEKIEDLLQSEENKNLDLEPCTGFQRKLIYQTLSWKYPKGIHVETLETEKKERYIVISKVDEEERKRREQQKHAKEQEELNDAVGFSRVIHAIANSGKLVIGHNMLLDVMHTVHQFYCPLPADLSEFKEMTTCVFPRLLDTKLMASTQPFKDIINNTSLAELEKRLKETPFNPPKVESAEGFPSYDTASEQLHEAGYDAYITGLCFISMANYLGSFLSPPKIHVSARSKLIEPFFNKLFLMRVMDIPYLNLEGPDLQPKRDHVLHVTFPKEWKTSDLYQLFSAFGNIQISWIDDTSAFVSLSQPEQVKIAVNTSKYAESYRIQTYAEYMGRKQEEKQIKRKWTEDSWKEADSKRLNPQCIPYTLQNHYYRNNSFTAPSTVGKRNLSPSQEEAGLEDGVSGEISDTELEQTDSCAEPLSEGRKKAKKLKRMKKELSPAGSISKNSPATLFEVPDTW
Procedure: as §1, §2

[1] = test system: HeLa S-100 cytoplasmic extract; assay: fluorescence-based detection of 3′ exonuclease activity in complex mixtures; conditions: 300 µM compound, 0.05 mg/ml S-100 fraction
Procedure: as §1, §2
HeLa cytoplasmic extract (S-100 fraction) was purchased from Boston Biochem (cat no F-372, 5 mg/ml).

T2 sequence (Q96LI5 156-555): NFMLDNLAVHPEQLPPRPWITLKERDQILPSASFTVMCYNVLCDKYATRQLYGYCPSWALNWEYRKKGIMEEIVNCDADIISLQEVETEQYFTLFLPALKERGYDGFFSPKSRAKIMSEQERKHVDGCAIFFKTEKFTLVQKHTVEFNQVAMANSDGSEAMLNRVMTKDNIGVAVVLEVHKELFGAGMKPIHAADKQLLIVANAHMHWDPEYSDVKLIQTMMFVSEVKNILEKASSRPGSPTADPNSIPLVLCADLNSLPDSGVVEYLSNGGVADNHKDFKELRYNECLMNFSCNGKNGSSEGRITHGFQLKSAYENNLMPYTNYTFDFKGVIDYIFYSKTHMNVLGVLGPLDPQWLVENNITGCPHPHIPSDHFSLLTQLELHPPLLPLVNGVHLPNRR
T1 sequence (Q9UIV1 whole entry): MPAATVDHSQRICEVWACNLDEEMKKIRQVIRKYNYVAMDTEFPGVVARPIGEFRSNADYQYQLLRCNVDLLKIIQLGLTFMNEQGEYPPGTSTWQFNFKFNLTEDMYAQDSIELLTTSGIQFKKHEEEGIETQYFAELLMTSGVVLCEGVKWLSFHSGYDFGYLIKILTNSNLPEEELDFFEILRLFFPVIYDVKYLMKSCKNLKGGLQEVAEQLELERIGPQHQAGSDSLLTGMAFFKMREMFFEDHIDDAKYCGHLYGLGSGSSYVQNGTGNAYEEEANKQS

Compound | IC50 (Caf1/CNOT7) [µM] | inhibition of Caf1/CNOT7 activity (Caf1/CNOT7) | inhibition of Ccr4/CNOT6L activity (Ccr4/CNOT6L) | inhibition of PARN activity (PARN) | inhibition of activity of the S-100 fraction [1] | Km (Caf1/CNOT7; 0.4 µM Caf1/CNOT7, non-linear regression of Michaelis–Menten equation) [µM]
Cc1ccc(N(CCC#N)C(=O)CSc2nc3cc(S(N)(=O)=O)ccc3n2C)cc1 [NCC-00019223] | 97.5 ± 36.1 |  |  |  |  | 
COc1ccccc1NC(=O)c1ccc(NC(=O)CNC(=O)C(=O)NCc2cccs2)cc1 [NCC-00039069] | 129 ± 18.8 | only inhibited Caf1/CNOT7 | did not inhibit | did not inhibit |  | 
CC(Cc1ccco1)NC(=O)CSc1nnc(C(=O)Nc2ccc(Cl)cc2)s1 (stereo not drawn) [NCC-00007277] | 137 ± 20.3 |  |  |  | strongest effect | 
5′-CCU UUC CAA AAA AAA A-3′ (CCUUUCCAAAAAAAAA; RNA, 5' {Flc}, backbone not given here; Deadenylase RNA substrate) [oligonucleotide substrate, 16-mer RNA substrate oligonucleotide containing a 5′ fluorescein (Flc) group, reference compound] |  |  |  |  |  | 10.6 ± 2.9
Cc1ccccc1C(=O)Nc1nc2ccc(S(=O)(=O)NCC(C)C)cc2s1 [NCC-00001590] | 98.7 ± 10.9 | only inhibited Caf1/CNOT7 | did not inhibit | did not inhibit |  | 
Cc1ccc(S(=O)(=O)NCc2nnc(NC(=O)c3ccc(NC(=O)C(F)(F)F)cc3)s2)cc1 [NCC-00010651] | 233 ± 23.5 |  | no complete inhibition | no complete inhibition |  | 
